Measurements published in patent publication US20200054057A1, “USE OF ACETYLENIC FATTY ACID COMPOUNDS AS KOKUMI FLAVOR” (Takasago International Corporation, priority 2017, published 2020).
Entries after “also recorded” stand apart in the source; their conditions may differ.

Tests used:
trained sensory panel [1] = assay: Taste recognition thresholds for kokumi/mouthfulness enhancement, duo-trio tests in chanterelle flavor recombinant; assay type: in vivo, human; settings: for Kokumi threshold: in recombinant chanterelle flavor, pH 5.8, duo-trio test; for Kokumi effect (in words): vis-à-vis recombinant chanterelle flavor
Protocol: An artificial chanterelle flavor recombinant was used as a reference flavor for determining the flavor-enhancing effect of the compounds to be tested. The pH value was adjusted to 5.8 with trace amounts of formic acid: Seventeen trained assessors (ten women and seven men, ages 23-30) were recruited from the Chair of Food Chemistry and Molecular Sensory Science (TUM). The sensory sessions were performed at 22° C. in air-conditioned sensory booths. To prevent cross-modal interactions with odorants, the panelists used nose-clips. Furthermore the light in the sensory booths was adjusted to yellow in order to eliminate optical differences between the samples. The taste threshold concentrations of the purified compounds were determined in the above-described chanterelle flavor recombinant using duo-trio-tests. The pH value of the individual samples and blanks was adjusted to 5.8 by adding trace amounts of formic acid. The samples were presented in serial 1:2 dilutions in order of increasing concentrations to the trained panel and the panelists were asked to mark the sample differing from the recombinant which was used as constant reference (one sample was identical to the reference, one sample was different). The threshold value of the sensory panel was approximated by averaging the threshold values of the individual panelists in two independent sessions.

trained sensory panel [2] = assay: Intrinsic taste recognition thresholds, three-alternative forced choice tests in 1% ethanol; assay type: in vivo, human; settings: in 1% ethanol/water; for Intrinsic taste threshold: three-alternative forced choice; for Intrinsic taste quality: taste recognized at threshold
Protocol: Seventeen trained assessors (ten women and seven men, ages 23-30) were recruited from the Chair of Food Chemistry and Molecular Sensory Science (TUM). The sensory sessions were performed at 22° C. in air-conditioned sensory booths. To prevent cross-modal interactions with odorants, the panelists used nose-clips. Furthermore the light in the sensory booths was adjusted to yellow in order to eliminate optical differences between the samples. The human recognition thresholds for the intrinsic taste of the purified compounds were determined by means of three-alternative forced choice tests in 1% ethanol. Serial 1:2 dilutions of the sample were presented in order of increasing concentrations to the panelists using the sip-and-spit-method. The geometric mean of the last and the next-to-last concentrations were calculated and taken as the individual recognition threshold. The threshold values evaluated in two different sessions were averaged.

| SMILES | Kokumi threshold (trained sensory panel [1]) [µmol/L] | Intrinsic taste threshold (trained sensory panel [2]) [µmol/L] | Kokumi effect (in words) (trained sensory panel [1]) | Intrinsic taste quality (trained sensory panel [2]) |
| --- | --- | --- | --- | --- |
| O=C(O)CCCCCCC/C=C\CC#CC(O)/C=C/C(O)CO (stereo not drawn) [Compound 1, (9Z,15E)-14,17,18-trihydroxy-9,15-octadecadien-12-ynoic acid] | 59 | >1000 |  |  |
| O=C(O)CCCCCCC/C=C\C=C/CC(O)CCC(O)CO (stereo not drawn) [Compound 2, (9Z,11Z)-14,17,18-trihydroxy-9,11-octadecadienoic acid] |  | 331 | did not exhibit a kokumi effect; also recorded: do not exhibit a kokumi flavor | [bitter] |
| O=C(O)CCCCCCC/C=C\C=C/CC(O)CCCCO (stereo not drawn) [Compound 3, (9Z,11Z)-14,18-dihydroxyoctadeca-9,11-dienoic acid] |  | 281 | did not exhibit a kokumi effect; also recorded: do not exhibit a kokumi flavor | [bitter] |
| CCC/C=C\C#C/C=C/C(O)CCCCCCCC(=O)O (stereo not drawn) [Compound 4, (10E,14Z)-9-hydroxy-10,14-octadecadien-12-ynoic acid] | 69 | 320 |  | [astringent] |
| CC/C=C/C(=O)C#CC/C=C\CCCCCCCC(=O)O [Compound 5, (9Z,15E)-14-oxo-9,15-octadecadien-12-ynoic acid] | 19 | 228 |  | [pungent] |
| CCC/C=C\C#C/C=C/C(=O)CCCCCCCC(=O)O [Compound 6, (10E,14Z)-9-oxo-10,14-octadecadien-12-ynoic acid] | 79 | 639 |  | [astringent] |
| CCC/C=C\CC(O)/C=C/CCCCCCCCC(=O)O (stereo not drawn) [Compound 8, (10E,14Z)-12-hydroxy-10,14-octadecadienoic acid] |  | 297 | did not exhibit a kokumi effect; also recorded: do not exhibit a kokumi flavor | [bitter] |
| CC/C=C/C(=O)C#CC/C=C\CCCCCCCC(=O)OC [Compound 9, (9Z,15E)-14-oxo-9,15-octadecadien-12-ynoic acid methyl ester] | 59 |  |  |  |
| CCC/C=C\C#C/C=C/C(CCCCCCCC(=O)O)OO (stereo not drawn) [Compound 10, (10E,14Z)-9-hydroperoxy-10,14-octadecadien-12-ynoic acid] | 38 | 536 |  | [bitter] |
| CCC/C=C\C#CC/C=C\CCCCCCCC(=O)O [Compound 11, 14,15-dehydrocrepenynic acid] | 105 | 531 |  | [bitter] |
| CCC/C=C\C#CC/C=C\CCCCCCCC(=O)OC [Compound 12, 14,15-dehydrocrepenynic acid methyl ester] | 32 | 648 |  | [astringent] |
| CCC/C=C\C#CC/C=C\CCCCCCCC(=O)OCC [Compound 13, 14,15-dehydrocrepenynic acid ethyl ester] | 59 | 512 |  | [astringent] |
| CCCCCC/C=C/C#CCCCCCCCC(=O)O [ximenynic acid, 11E-octadecen-9-ynoic acid, reference compound] | 84 | 482 |  | [bitter] |
